Columns and labels:
Format in all cases: cell-based
iPS cell line 8004 [1] = assay: Neuron purity of iPS cell line 8004 by TUJ1/Nestin flow cytometry staining; conditions: 10 μM SB-431542 on Days −2, −1, 0, and 1; Day 28
Experimental: (§1) iPS cell line 8004 was differentiated using the procedure of Example 3 with and without 10 μM SB-431542 added to culture medium on Days −2, −1, 0, and 1. On Day 28, neuron purity as determined by TUJ1/Nestin flow cytometry staining was 80% without SB-431542 and 97% with SB-431542. Beginning on Day 30 of the. procedure, cells were fed 90% 1× DMEM-F12/10% FBS every 7 days. Astrocyte outgrowth was first detected on Day 45. On Day 48, cultures were assayed by flow cytometry for astrocyte purity using GFAP as a marker for astrocytes. […] In summary, the methods detailed herein provide for a method to produce cultures of high purity astrocytes in a time efficient manner relative to existing astrocyte differentiation methods.

iPS cell line 8004 [2] = assay: Astrocyte purity of iPS cell line 8004 cultures by flow cytometry using GFAP as marker; conditions: 10 μM SB-431542 on Days −2, −1, 0, and 1; fed 10% FBS from Day 30; Day 48
Experimental: as §1

iPSC line (2.042) = assay: Neural differentiation of iPSC line 2.042, neuron purity by βIII-tubulin/Nestin double stains; conditions: only one of 10 μM SB-431542 or 1 μM dorsomorphin in medium on Days −2, −1, 0 and 1; Day 28 (FIG. 3C)
iPSC line 1729c4 = assay: Neural differentiation of iPSC line 1729c4, purity by flow cytometry with βIII-tubulin/Nestin double stains; conditions: 10 ng/mL FGF8 present on Day −3; Day 27
From the text: iPS cells were maintained on Matrigel in TeSR medium (Stem Cell Technologies) and sodium citrate split one passage prior to aggregate formation and grown in T150 flasks, but can be scaled for starting cells in other culture formats. Alternate pluripotent cell culture media (such as E8 media: Chen et al., 2011), containing varying concentrations of TGFβ and/or bFGF, can be used to optimize neural differentiation of different iPS cell lines or clones. Pluripotent cell cultures were then “primed” for differentiation three or four days prior to aggregate formation. […]
On Day 0 of the neuron differentiation process (specifically, aggregate formation), cells are harvested from T150 flasks (up to five flasks at one time) and, after media is aspirated, 12 mL of warm TrypLE is added to each flask and the cells are incubated at 37° C. for 7 minutes. […] The tubes may be combined and cells are counted (CEDEX HiRES cell counter). […] Diluted cell stock is counted (CEDEX HiRES cell counter). […]

NC(=O)c1ccc(-c2nc(-c3ccc4c(c3)OCO4)c(-c3ccccn3)[nH]2)cc1 [SB-431542]
neuron purity by TUJ1/Nestin flow cytometry staining (iPS cell line 8004 [1]): 97%
GFAP positive cells (astrocyte purity) (iPS cell line 8004 [2]): 56%
neuron purity by βIII-tubulin/Nestin double stains compared to both inhibitors (iPSC line (2.042)): similarly high neuron purities

B1: FGF8: fibroblast growth factor 8, reported as an endogenous neural inducer (protein, UniProt P55075 23-233, looked up)
Fibroblast growth factor 8: QEGPGRGPALGRELASLFRAGREPQGVSQQHVREQSLVTDQLSRRLIRTYQLYSRTSGKHVQVLANKRINAMAEDGDPFAKLIVETDTFGSRVRVRGAETGLYICMNKKGKLIAKSNGKGKDCVFTEIVLENNYTALQNAKYEGWYMAFTRKGRPRKGSKTRQHQREVHFMKRLPRGHHTTEQSLRFEFLNYPPFTRSLRGSQRTWAPEPR
βIII-tubulin/Nestin positive cells (iPSC line 1729c4): 90%

Source: patent publication US9487752B2, “Priming of pluripotent stem cells for neural differentiation” (Cellular Dynamics International, Inc., priority 2011, dated 2016)
